Values joined by “and” are separate entries in the source; they are usually repeats but may differ in a detail not shown here. Identical values can stand only once.
Experiments:
mast cells = assay: Histology: number of mast cells in skin (toluidine blue, x200); type: in vivo, NC/Nga mice; conditions: for Average No. of Mast Cells × 200: individual mouse; for Average No. of Mast Cells × 200, Group Mean: mean of 5 mice
Method: (§1) 4-7) Histology (H & E, Toluidine Blue Stain) • d. Skin tissues were fixed in 10% formalin for at least 24 hours, prepared into paraffin blocks, cut into pieces in the size of 4 μm, dyed with hematoxylin & eosin (Sigma, USA), and then dyed again with toluidine blue (Sigma, USA) for more accurate identification of inflammatory cells.

IgE (Immunoglobulin E) = assay: IgE concentration in blood serum (ELISA); type: in vivo, NC/Nga mice; conditions: for IgE Average Concentration / IgE Group Average: blood serum; for IgE Average Concentration: individual specimen; for IgE Group Average: mean of 5 mice
Method: The blood collected in a mouse was left at room temperature for 30 minutes and then centrifuged at 3000 rpm for 20 minutes. The blood serum obtained therefrom was analyzed via ELISA kit (Shibayagi, Japan).

[1] = Body weight of atopy-induced NC/Nga mice; conditions: DNCB atopy-induced NC/Nga mice
Text: 20 fourteen-week old female NC/Nga mice (Central Lab. Animal Inc., Korea) with a body weight of about 20 g were used. The experimental animals were allowed to adapt for 7 days in the animal rooms before the experiment, and observed for general symptoms.
A test solution prepared by dissolving a mixture consisting of acetone and olive oil in 3:1 ratio in dinitrochlorobenzene (DNCB) to a concentration of about 1% to about 0.2% was coated on the skin of the NC/Nga mice to induce atopic dermatitis.
Body weight was measured twice from the time when the test material was administered.

[2] = system: dorsal skin of NC/Nga mice induced with atopic dermatitis using DNCB; assay: Dorsal skin inflammation of mice induced with atopic dermatitis (clinical images); type: in vivo; conditions: 15th week, versus positive control, in words
Text: 4-6) Dorsal Skin Inflammation of a Mouse Induced with Atopic Dermatitis • c. The body weight of a mouse was not increased due to DNCB solution used for inducing atopy, however, there was no decrease in body weight by the administration of chlorophyll a. In the positive control group coated with only distilled water after atopy induction using DNCB, there were observed a thick cornified layer and inflammation and damage on skin.

[3] = system: degranulation of mast cells; assay: Histology: mast cells per degranulation level; type: in vivo, NC/Nga mice; conditions: for No. of Mast Cells per value of degranulation level 1 / No. of Mast Cells per value of degranulation level 1, mean: intermediate level of degranulation; for No. of Mast Cells per value of degranulation level 1 / No. of Mast Cells per value of degranulation level 0 / No. of Mast Cells per value of degranulation level 2: individual mouse; for No. of Mast Cells per value of degranulation level 1, mean / No. of Mast Cells per value of degranulation level 0, mean / No. of Mast Cells per value of degranulation level 2, mean: mean of 5 mice; for No. of Mast Cells per value of degranulation level 0 / No. of Mast Cells per value of degranulation level 0, mean: normal degranulation; for No. of Mast Cells per value of degranulation level 2 / No. of Mast Cells per value of degranulation level 2, mean: serious level of degranulation
Method: as §1

[4] = system: skin tissues of atopy-induced NC/Nga mice; assay: Histology: H & E biopsy score of skin; type: in vivo; conditions: for H & E biopsy score: group mean, acanthosis, hyperkeratosis, neutrophil infiltration, fibroblast hyperplasia, dermis each scored 1 to 3
Method: as §1
The evaluation standard for biopsy was calculated in an averaged score scale of 1 to 3 based on the status of acanthosis, hyperkeratosis, neutrophil infiltration, fibroblast hyperplasia, dermis, etc. […] Among them, a group treated with 1 mg/kg of chlorophyll a as a test drug was evaluated as being of significance (FIGS. 18-23).

[5] = system: atopic dermatitis induced with DNCB in NC/Nga mice; assay: Sensory evaluation (clinical visual skin score) in DNCB-induced atopic dermatitis; type: in vivo; design: key: total of five item scores, 0 = lowest, 15 = highest; conditions: scale 0-15; for Sensory Evaluation Score, group mean: mean of 5 mice; for Sensory Evaluation Score mean: mean of A and B; for Sensory Evaluation Score mean / Sensory Evaluation Score A / Sensory Evaluation Score B: individual mouse; for Sensory Evaluation Score A: scorer A; for Sensory Evaluation Score B: scorer B
Method: Sensory evaluation was performed using the general clinical visual method. The result of visual evaluation was indicated in terms of the total score obtained by adding each of the evaluation scores for the five items shown in the below table. The scoring for the level of dermatitis was performed by two or more persons experienced in this experiment under mutual agreement. The score was set from “0” point, the lowest, to “15” point, the highest (Table 2).

spleen = assay: Measurement of spleen weight; type: in vivo, NC/Nga mice; conditions: for relative organ weight of spleen: group mean; for Absolute Comparison of Organs spleen wt. / Relative Comparison of Organs spleen: individual mouse; for Absolute Comparison of Organs spleen wt. mean S.D. / Relative Comparison of Organs spleen mean S.D.: mean of 5 mice
Method: The spleen of a sacrificed animal was ablated, removed of fat, and then measured of its weight. When the absolute organ weight of the spleen was compared with that of the positive control group (0.2576±0.043 g), the weight was lower in the order of test drug chlorophyll a 1 mg/kg group (0.1188±0.023 g), chlorophyll a 5 mg/kg group (0.1276±0.011 g), and 5 mg/kg drug control group (0.1376±0.025 g), and all of them were of significance at p<0.05, but were lower than that of the negative control group (0.1734±0.021 g) (FIG. 6).

C=Cc1c(C)c2cc3nc(c4c5[n-]c(cc6nc(cc1[n-]2)C(C)=C6CC)c(C)c5C(=O)[C@@H]4C(=O)OC)[C@@H](CCC(=O)OC/C=C(\C)CCC[C@H](C)CCC[C@H](C)CCCC(C)C)[C@@H]3C.[Mg+2] [chlorophyll a]
Average No. of Mast Cells × 200 (mast cells; 1 mg/kg oral daily): 9.3 and 7.6 and 5.4 and 8.9 and 10.4
Average No. of Mast Cells × 200, Group Mean (mast cells; 1 mg/kg oral daily): 8.32±1.195 and 8.32 ± 1.915 and 8.32
Average No. of Mast Cells × 200 (mast cells; 5 mg/kg oral daily): 7.3 and 10 and 12.7 and 11.8 and 11.1
Average No. of Mast Cells × 200, Group Mean (mast cells; 5 mg/kg oral daily): 10.8±2.083 and 10.58 ± 2.083 and 10.58
IgE Average Concentration (IgE (Immunoglobulin E); 1 mg/kg oral daily, 1 mg/kg): 104.198 ng/mL and 106.557 ng/mL and 166.675 ng/mL and 119.515 ng/mL and 149.499 ng/mL
IgE Group Average (IgE (Immunoglobulin E); 1 mg/kg oral daily, 1 mg/kg): 121.76 ± 15.58 ng/mL and 129.29 ± 27.60 ng/mL
IgE Average Concentration (IgE (Immunoglobulin E); 5 mg/kg oral daily, 5 mg/kg): 108.757 ng/mL and 115.652 ng/mL and 129.408 ng/mL and 88.578 ng/mL and 104.912 ng/mL
IgE Group Average (IgE (Immunoglobulin E); 5 mg/kg oral daily, 5 mg/kg): 109.46 ± 14.95 ng/mL
value of IgE (IgE (Immunoglobulin E); in words, dose not split): decreased
body weight ([1]; 1 mg/kg oral daily, day 1, individual mouse, 1 mg/kg): 25.6 g and 27.4 g and 24.5 g and 24 g and 26.1 g
body weight, group mean ([1]; 1 mg/kg oral daily, day 1, mean of 5 mice): 25.52 g
body weight ([1]; 1 mg/kg oral daily, day 3, individual mouse, 1 mg/kg): 25.7 g and 27.6 g and 25.8 g and 25.5 g and 27.1 g
body weight, group mean ([1]; 1 mg/kg oral daily, day 3, mean of 5 mice): 26.34 g
body weight ([1]; 1 mg/kg oral daily, day 5, individual mouse, 1 mg/kg): 27.3 g and 28.2 g and 26.5 g and 26 g and 27.8 g
body weight, group mean ([1]; 1 mg/kg oral daily, day 5, mean of 5 mice): 27.16 g
body weight ([1]; 1 mg/kg oral daily, day 7, individual mouse, 1 mg/kg): 27.3 g and 27.6 g and 26.5 g and 24.7 g and 28.6 g
body weight, group mean ([1]; 1 mg/kg oral daily, day 7, mean of 5 mice): 26.94 g
body weight ([1]; 1 mg/kg oral daily, day 9, individual mouse, 1 mg/kg): 28.4 g and 27.4 g and 25.8 g and 25.7 g and 27.7 g
body weight, group mean ([1]; 1 mg/kg oral daily, day 9, mean of 5 mice): 27 g
body weight, group mean ([1]; 1 mg/kg oral daily, day 11 (time of sacrifice), mean of 5 mice, 1 mg/kg): 28.36 ± 1.045 g and 28.36 g
body weight ([1]; 1 mg/kg oral daily, day 11, individual mouse, 1 mg/kg): 29 g and 28.9 g and 27.5 g and 27 g and 29.4 g
body weight ([1]; 5 mg/kg oral daily, day 1, individual mouse, 5 mg/kg): 24.9 g and 28.6 g and 27.5 g (2×) and 27.1 g
body weight, group mean ([1]; 5 mg/kg oral daily, day 1, mean of 5 mice): 27.12 g
body weight ([1]; 5 mg/kg oral daily, day 3, individual mouse, 5 mg/kg): 24.8 g and 29.6 g and 27.1 g and 29 g and 27.4 g
body weight, group mean ([1]; 5 mg/kg oral daily, day 3, mean of 5 mice): 27.58 g
body weight ([1]; 5 mg/kg oral daily, day 5, individual mouse, 5 mg/kg): 25.9 g and 30.8 g and 26.7 g and 29.3 g and 28 g
body weight, group mean ([1]; 5 mg/kg oral daily, day 5, mean of 5 mice): 28.14 g
body weight ([1]; 5 mg/kg oral daily, day 7, individual mouse, 5 mg/kg): 25.9 g and 30.6 g and 27.2 g and 30.2 g and 28.2 g
body weight, group mean ([1]; 5 mg/kg oral daily, day 7, mean of 5 mice): 28.42 g
body weight ([1]; 5 mg/kg oral daily, day 9, individual mouse, 5 mg/kg): 25.3 g and 30.6 g and 27.2 g and 29 g and 27 g
body weight, group mean ([1]; 5 mg/kg oral daily, day 9, mean of 5 mice): 27.82 g
body weight, group mean ([1]; 5 mg/kg oral daily, day 11 (time of sacrifice), mean of 5 mice, 5 mg/kg): 28.86 ± 2.033 g and 28.86 g
body weight ([1]; 5 mg/kg oral daily, day 11, individual mouse, 5 mg/kg): 25.7 g and 31.3 g and 29.2 g and 29.5 g and 28.6 g
change in body weight by the administration ([1]; oral administration, in words): no decrease
tissue damage of dorsal skin ([2]; 1 mg/kg oral daily): significant decreases
tissue damage of dorsal skin ([2]; 5 mg/kg oral daily): significant decreases
degranulation count of the mast cells ([3]; 1 mg/kg oral daily, in words): not significantly improved
No. of Mast Cells per value of degranulation level 1 ([3]; 1 mg/kg oral daily, 1 mg/kg): 2.87 and 1.44 and 1.91 and 1.75 and 2.57
No. of Mast Cells per value of degranulation level 1, mean ([3]; 1 mg/kg oral daily, 1 mg/kg): 2.11±0.59 and 2.11
No. of Mast Cells per value of degranulation level 1 ([3]; 5 mg/kg oral daily, 5 mg/kg): 0.75 and 2.31 and 2.76 and 2.57 and 4.31
No. of Mast Cells per value of degranulation level 1, mean ([3]; 5 mg/kg oral daily, 5 mg/kg): 2.54±1.27 and 2.54
No. of Mast Cells per value of degranulation level 0 ([3]; 1 mg/kg oral daily, 1 mg/kg): 4.12 and 5.55 and 2.82 and 5.89 and 4.83
No. of Mast Cells per value of degranulation level 0, mean ([3]; 1 mg/kg oral daily, 1 mg/kg): 4.64±1.22 and 4.64
No. of Mast Cells per value of degranulation level 0 ([3]; 5 mg/kg oral daily, 5 mg/kg): 5.98 and 6.31 and 4.51 and 7.41 and 3.81
No. of Mast Cells per value of degranulation level 0, mean ([3]; 5 mg/kg oral daily): 5.60
No. of Mast Cells per value of degranulation level 0, mean ([3]; 5 mg/kg oral daily, 5 mg/kg): 5.60±1.44
No. of Mast Cells per value of degranulation level 2 ([3]; 1 mg/kg oral daily, 1 mg/kg): 1.56 and 0.62 and 0.66 and 1.25 and 2.38
No. of Mast Cells per value of degranulation level 2, mean ([3]; 1 mg/kg oral daily, 1 mg/kg): 1.30±0.73 and 1.30
No. of Mast Cells per value of degranulation level 2 ([3]; 5 mg/kg oral daily, 5 mg/kg): 0.44 and 1.44 and 5.45 and 1.82 and 3.00
No. of Mast Cells per value of degranulation level 2, mean ([3]; 5 mg/kg oral daily, 5 mg/kg): 2.43±1.92 and 2.43
H & E biopsy score ([4]; 1 mg/kg oral daily): 4.6±0.55
tissue H&E reading: improvement in atopy symptom ([4]; 1 mg/kg oral daily, in words): the most improvement
H & E biopsy score ([4]; 5 mg/kg oral daily): 5±1.58
Sensory Evaluation Score, group mean ([5]; 1 mg/kg oral daily): 2.7±0.758 and 2.7
Sensory Evaluation Score mean ([5]; 1 mg/kg oral daily): 1.5 and 3 (2×) and 3.5 and 2.5
Sensory Evaluation Score A ([5]; 1 mg/kg oral daily): 2 (2×) and 3 (3×)
Sensory Evaluation Score B ([5]; 1 mg/kg oral daily): 1 and 4 (2×) and 2 and 3
Sensory Evaluation Score, group mean ([5]; 5 mg/kg oral daily): 2.7±1.789 and 2.7
Sensory Evaluation Score mean ([5]; 5 mg/kg oral daily): 5.5 and 1.5 (3×) and 3.5
Sensory Evaluation Score A ([5]; 5 mg/kg oral daily): 5 and 2 (3×) and 3
Sensory Evaluation Score B ([5]; 5 mg/kg oral daily): 6 and 1 (3×) and 4
relative organ weight of spleen (spleen; 1 mg/kg oral daily): 0.418 ± 0.211 g
Absolute Comparison of Organs spleen wt. (spleen; 1 mg/kg oral daily): 0.103 g and 0.114 g and 0.119 g and 0.1 g and 0.158 g
Relative Comparison of Organs spleen (spleen; 1 mg/kg oral daily): 0.355 g/body wt. (100 g) and 0.394 g/body wt. (100 g) and 0.433 g/body wt. (100 g) and 0.370 g/body wt. (100 g) and 0.537 g/body wt. (100 g)
Absolute Comparison of Organs spleen wt. mean S.D. (spleen; 1 mg/kg oral daily): 0.1188 ± 0.023 g
Relative Comparison of Organs spleen mean S.D. (spleen; 1 mg/kg oral daily): 0.418 ± 0.073 g/body wt. (100 g)
relative organ weight of spleen (spleen; 5 mg/kg oral daily): 0.446 ± 0.069 g
Absolute Comparison of Organs spleen wt. (spleen; 5 mg/kg oral daily): 0.144 g and 0.12 g and 0.133 g and 0.122 g and 0.119 g
Relative Comparison of Organs spleen (spleen; 5 mg/kg oral daily): 0.560 g/body wt. (100 g) and 0.383 g/body wt. (100 g) and 0.455 g/body wt. (100 g) and 0.414 g/body wt. (100 g) and 0.416 g/body wt. (100 g)
Absolute Comparison of Organs spleen wt. mean S.D. (spleen; 5 mg/kg oral daily): 0.1276 ± 0.011 g
Relative Comparison of Organs spleen mean S.D. (spleen; 5 mg/kg oral daily): 0.446 ± 0.069 g/body wt. (100 g)
absolute organ weight and relative organ weight of spleen compared with the negative control group (spleen; in words, dose not split): only a little difference

Reference: patent publication US20130274237A1, “COMPOSITION INCLUDING CHLOROPHYLL A AS AN ACTIVE INGREDIENT FOR PREVENTING AND TREATING TH2-MEDIATED IMMUNOLOGICAL DISEASES” (GWANGJU INSTITUTE OF SCIENCE AND TECHNOLOGY, priority 2009, published 2013)
